Measured values: the kinase profiling compilation of Christmann-Franck et al. (2016)

What was measured:
Test in all cases: radiometric filter-binding kinase assay, Kinase HotSpot
Conditions in all cases: compound 0.5 µM; ATP 10 µM
[1] = molecular target: ACVR1B (human) (UniProt P36896)
[2] = molecular target: AKT3 (human) (UniProt Q9Y243)
[3] = molecular target: AURKC (human) (UniProt Q9UQB9)
[4] = molecular target: AXL (human) (UniProt P30530)
[5] = molecular target: BTK (human) (UniProt Q06187)
[6] = molecular target: CAMK1D (human) (UniProt Q8IU85)
[7] = molecular target: CAMK2A (human) (UniProt Q9UQM7)
[8] = molecular target: CAMK2D (human) (UniProt Q13557)
Sequence of CAMK2D (human) (Q13557 whole entry, looked up): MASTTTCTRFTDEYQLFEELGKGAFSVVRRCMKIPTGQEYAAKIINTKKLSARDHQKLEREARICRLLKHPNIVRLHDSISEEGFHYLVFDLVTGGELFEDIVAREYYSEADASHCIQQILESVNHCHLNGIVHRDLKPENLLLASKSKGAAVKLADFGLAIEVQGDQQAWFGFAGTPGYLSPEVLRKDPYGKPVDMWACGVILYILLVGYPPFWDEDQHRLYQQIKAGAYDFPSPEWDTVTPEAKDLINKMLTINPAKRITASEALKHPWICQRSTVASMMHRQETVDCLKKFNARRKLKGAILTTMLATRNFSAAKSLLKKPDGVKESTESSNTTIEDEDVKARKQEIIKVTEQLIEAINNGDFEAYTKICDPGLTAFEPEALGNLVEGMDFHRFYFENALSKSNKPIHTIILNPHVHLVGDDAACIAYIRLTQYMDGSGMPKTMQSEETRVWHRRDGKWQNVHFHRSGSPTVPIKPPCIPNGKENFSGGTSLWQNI

[9] = molecular target: CDK3 CCNE1 (human) (UniProt Q00526+P24864)
[10] = molecular target: CDK7 CCNH MNAT1 (human) (UniProt P50613+P51948+P51946)
Sequence of CDK7 CCNH MNAT1 (human) (P50613 whole entry, looked up): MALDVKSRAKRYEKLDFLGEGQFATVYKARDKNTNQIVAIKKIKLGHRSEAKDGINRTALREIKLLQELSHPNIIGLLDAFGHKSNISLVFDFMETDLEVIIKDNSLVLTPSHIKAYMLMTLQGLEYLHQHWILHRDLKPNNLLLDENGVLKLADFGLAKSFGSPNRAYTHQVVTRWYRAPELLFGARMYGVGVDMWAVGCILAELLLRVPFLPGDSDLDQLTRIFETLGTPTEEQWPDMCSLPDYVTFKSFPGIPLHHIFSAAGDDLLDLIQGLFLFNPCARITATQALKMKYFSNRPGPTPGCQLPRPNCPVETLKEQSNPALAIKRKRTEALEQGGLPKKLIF
Sequence of CDK7 CCNH MNAT1 (human) (P51946 whole entry, looked up): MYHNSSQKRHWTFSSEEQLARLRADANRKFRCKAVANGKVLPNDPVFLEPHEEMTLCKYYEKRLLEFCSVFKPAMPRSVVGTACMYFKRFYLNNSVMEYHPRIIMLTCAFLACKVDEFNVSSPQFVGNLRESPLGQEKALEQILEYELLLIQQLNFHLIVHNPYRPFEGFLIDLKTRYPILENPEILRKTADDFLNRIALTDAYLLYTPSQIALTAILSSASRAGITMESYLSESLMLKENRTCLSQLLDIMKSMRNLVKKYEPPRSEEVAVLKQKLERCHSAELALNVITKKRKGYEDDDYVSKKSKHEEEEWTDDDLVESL
Sequence of CDK7 CCNH MNAT1 (human) (P51948 whole entry, looked up): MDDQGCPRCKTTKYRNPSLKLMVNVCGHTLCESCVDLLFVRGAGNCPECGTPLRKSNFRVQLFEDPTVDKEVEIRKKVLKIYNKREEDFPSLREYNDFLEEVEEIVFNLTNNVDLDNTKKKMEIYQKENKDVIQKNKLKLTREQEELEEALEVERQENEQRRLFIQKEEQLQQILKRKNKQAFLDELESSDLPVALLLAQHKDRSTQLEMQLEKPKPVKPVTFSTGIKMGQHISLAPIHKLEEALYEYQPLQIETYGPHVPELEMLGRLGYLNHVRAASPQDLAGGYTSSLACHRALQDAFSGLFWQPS

[11] = molecular target: CSNK1D (human) (UniProt P48730)
[12] = molecular target: DAPK1 (human) (UniProt P53355)
[13] = molecular target: DAPK2 (human) (UniProt Q9UIK4)
[14] = molecular target: DYRK3 (human) (UniProt O43781)
[15] = molecular target: EPHA4 (human) (UniProt P54764)
[16] = molecular target: FES (human) (UniProt P07332)
[17] = molecular target: INSRR (human) (UniProt P14616)
[18] = molecular target: LIMK1 (human) (UniProt P53667)
[19] = molecular target: MAP3K2 (human) (UniProt Q9Y2U5)
[20] = molecular target: MAP3K5 (human) (UniProt Q99683)
[21] = molecular target: MAP3K7 TAB1 (human) (UniProt O43318+Q15750)
[22] = molecular target: MAP3K9 (human) (UniProt P80192)
[23] = molecular target: MAP4K4 (human) (UniProt O95819)
Sequence of MAP4K4 (human) (O95819 whole entry, looked up): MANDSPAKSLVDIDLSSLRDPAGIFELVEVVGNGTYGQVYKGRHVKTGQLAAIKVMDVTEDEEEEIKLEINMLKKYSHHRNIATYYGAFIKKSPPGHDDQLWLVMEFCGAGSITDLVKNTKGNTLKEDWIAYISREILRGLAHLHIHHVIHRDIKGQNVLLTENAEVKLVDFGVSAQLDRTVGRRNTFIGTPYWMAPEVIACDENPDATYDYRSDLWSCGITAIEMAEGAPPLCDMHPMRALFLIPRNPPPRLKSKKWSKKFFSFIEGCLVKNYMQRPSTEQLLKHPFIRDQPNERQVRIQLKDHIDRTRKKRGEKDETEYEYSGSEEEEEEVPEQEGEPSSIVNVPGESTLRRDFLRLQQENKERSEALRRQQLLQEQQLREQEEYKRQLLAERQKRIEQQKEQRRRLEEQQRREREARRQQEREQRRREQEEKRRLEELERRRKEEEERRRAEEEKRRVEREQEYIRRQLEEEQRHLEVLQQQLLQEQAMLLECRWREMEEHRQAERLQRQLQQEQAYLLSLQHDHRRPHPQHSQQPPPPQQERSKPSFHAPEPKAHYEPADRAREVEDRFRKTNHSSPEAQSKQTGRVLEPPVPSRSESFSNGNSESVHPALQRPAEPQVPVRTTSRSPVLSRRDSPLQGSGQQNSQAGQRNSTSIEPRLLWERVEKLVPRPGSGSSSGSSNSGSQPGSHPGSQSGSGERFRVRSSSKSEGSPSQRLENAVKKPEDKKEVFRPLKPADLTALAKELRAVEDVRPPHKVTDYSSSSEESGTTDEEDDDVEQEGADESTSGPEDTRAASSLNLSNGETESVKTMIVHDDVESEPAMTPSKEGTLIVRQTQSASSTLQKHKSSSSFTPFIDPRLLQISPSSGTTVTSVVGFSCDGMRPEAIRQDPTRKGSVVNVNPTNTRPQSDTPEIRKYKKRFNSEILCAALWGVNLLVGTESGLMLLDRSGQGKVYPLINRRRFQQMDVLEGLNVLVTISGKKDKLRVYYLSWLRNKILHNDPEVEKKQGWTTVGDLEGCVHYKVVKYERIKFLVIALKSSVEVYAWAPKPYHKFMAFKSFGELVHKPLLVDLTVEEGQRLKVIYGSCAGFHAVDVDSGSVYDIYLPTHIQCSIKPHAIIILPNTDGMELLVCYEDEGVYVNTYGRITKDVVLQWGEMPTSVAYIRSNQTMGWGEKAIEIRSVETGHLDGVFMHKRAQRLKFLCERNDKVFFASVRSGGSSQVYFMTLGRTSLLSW

[24] = molecular target: MAPK12 (human) (UniProt P53778)
[25] = molecular target: NEK3 (human) (UniProt P51956)
[26] = molecular target: PASK (human) (UniProt Q96RG2)
Sequence of PASK (human) (Q96RG2 whole entry, looked up): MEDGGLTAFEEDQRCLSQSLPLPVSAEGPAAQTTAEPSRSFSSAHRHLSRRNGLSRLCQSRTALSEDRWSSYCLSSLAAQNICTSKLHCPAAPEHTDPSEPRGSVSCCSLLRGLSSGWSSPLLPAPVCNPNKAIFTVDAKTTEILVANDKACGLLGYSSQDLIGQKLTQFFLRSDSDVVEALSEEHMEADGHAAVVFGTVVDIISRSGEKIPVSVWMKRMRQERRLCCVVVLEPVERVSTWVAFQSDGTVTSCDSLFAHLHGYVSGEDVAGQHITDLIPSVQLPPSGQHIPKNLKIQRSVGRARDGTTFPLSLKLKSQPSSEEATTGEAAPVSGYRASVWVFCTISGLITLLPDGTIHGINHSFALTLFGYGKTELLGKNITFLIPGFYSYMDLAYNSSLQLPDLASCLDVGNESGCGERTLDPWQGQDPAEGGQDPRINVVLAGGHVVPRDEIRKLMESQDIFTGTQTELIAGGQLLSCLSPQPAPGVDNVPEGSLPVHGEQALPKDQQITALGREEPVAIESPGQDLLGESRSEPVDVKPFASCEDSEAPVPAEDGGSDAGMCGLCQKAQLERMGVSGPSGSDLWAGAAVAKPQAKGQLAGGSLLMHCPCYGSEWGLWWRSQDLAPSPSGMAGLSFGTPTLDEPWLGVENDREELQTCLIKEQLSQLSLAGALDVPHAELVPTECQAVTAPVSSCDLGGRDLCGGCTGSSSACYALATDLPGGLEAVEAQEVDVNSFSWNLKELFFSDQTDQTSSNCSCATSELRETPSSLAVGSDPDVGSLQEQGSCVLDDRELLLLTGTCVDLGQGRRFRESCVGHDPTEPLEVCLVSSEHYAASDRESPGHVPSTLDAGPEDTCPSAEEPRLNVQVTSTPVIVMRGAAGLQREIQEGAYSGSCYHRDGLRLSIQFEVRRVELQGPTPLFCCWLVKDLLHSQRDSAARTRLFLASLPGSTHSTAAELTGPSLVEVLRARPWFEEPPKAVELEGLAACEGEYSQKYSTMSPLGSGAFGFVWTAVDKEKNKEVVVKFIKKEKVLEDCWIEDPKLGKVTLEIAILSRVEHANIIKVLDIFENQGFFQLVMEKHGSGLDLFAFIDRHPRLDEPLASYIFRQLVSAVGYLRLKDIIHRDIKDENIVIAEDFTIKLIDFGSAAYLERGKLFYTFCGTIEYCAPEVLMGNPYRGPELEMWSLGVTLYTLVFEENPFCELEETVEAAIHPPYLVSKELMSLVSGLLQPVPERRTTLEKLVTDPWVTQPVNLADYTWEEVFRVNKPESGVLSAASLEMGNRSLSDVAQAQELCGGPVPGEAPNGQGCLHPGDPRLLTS

[27] = molecular target: PHKG1 (human) (UniProt Q16816)
[28] = molecular target: PRKCD (human) (UniProt Q05655)
Sequence of PRKCD (human) (Q05655 whole entry, looked up): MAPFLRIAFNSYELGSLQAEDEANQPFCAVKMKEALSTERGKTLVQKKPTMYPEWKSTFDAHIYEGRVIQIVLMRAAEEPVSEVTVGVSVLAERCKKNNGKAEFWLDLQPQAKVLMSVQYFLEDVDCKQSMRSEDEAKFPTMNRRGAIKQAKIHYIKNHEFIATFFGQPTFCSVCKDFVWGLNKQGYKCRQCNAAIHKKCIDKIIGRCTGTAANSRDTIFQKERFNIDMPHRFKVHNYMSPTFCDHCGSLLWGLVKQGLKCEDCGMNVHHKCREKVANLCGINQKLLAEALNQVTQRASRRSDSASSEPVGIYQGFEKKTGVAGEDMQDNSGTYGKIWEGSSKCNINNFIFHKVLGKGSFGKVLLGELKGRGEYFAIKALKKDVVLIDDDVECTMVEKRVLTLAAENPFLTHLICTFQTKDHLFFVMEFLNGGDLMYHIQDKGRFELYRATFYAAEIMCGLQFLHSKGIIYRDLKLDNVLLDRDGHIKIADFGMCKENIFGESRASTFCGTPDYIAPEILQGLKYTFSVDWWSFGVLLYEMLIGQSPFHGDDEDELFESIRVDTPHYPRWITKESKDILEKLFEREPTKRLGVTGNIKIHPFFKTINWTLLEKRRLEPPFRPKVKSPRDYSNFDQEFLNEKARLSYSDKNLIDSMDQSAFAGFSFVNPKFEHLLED

[29] = molecular target: PRKD2 (human) (UniProt Q9BZL6)
[30] = molecular target: PRKG2 (human) (UniProt Q13237)
[31] = molecular target: PTK2 (human) (UniProt Q05397)
[32] = molecular target: RIPK2 (human) (UniProt O43353)
[33] = molecular target: RPS6KA2 KD1 KD2 (human) (UniProt Q15349)
[34] = molecular target: RPS6KB1 (human) (UniProt P23443)
[35] = molecular target: SRPK2 (human) (UniProt P78362)
[36] = molecular target: STK16 (human) (UniProt O75716)
Sequence of STK16 (human) (O75716 whole entry, looked up): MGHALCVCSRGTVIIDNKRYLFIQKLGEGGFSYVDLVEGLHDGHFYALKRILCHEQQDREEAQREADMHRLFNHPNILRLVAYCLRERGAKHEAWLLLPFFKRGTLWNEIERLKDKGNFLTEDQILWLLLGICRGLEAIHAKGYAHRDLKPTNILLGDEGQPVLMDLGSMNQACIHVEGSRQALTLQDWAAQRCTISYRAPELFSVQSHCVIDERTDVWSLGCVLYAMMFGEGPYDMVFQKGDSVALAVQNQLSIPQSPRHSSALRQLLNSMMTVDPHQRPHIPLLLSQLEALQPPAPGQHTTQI

[37] = molecular target: STK24 (human) (UniProt Q9Y6E0)
[38] = molecular target: SYK (human) (UniProt P43405)
[39] = molecular target: TAOK1 (human) (UniProt Q7L7X3)
[40] = molecular target: TGFBR2 (human) (UniProt P37173)
[41] = molecular target: VRK1 (human) (UniProt Q99986)
[42] = molecular target: PDGFRB (human) (UniProt P09619)

COc1cc2ncnc(N3CCN(C(=O)Nc4ccc(Oc5ccccc5)cc4)CC3)c2cc1OC
residual activity [1]: 94.7%
residual activity [2]: 97.5%
residual activity [3]: 90.3%
residual activity [4]: 91.7%
residual activity [5]: 87.8%
residual activity [6]: 104%
residual activity [7]: 89.9%
residual activity [8]: 70.9%
residual activity [9]: 82%
residual activity [10]: 103%
residual activity [11]: 103%
residual activity [12]: 97.5%
residual activity [13]: 95%
residual activity [14]: 86.3%
residual activity [15]: 93.2%
residual activity [16]: 98.3%
residual activity [17]: 96.8%
residual activity [18]: 69.8%
residual activity [19]: 81.2%
residual activity [20]: 102%
residual activity [21]: 98.3%
residual activity [22]: 100%
residual activity [23]: 88.4%
residual activity [24]: 94.7%
residual activity [25]: 100%
residual activity [26]: 97.7%
residual activity [27]: 89.5%
residual activity [28]: 84.3%
residual activity [29]: 91.9%
residual activity [30]: 97.5%
residual activity [31]: 89.4%
residual activity [32]: 93.7%
residual activity [33]: 86.1%
residual activity [34]: 89.4%
residual activity [35]: 89.1%
residual activity [36]: 94.2%
residual activity [37]: 99.6%
residual activity [38]: 93.2%
residual activity [39]: 81.6%
residual activity [40]: 102%
residual activity [41]: 77.4%

CC(C)c1nn(-c2c(Cl)cccc2Cl)c2nc(Cc3ccc(OCCO)cc3)nc(O)c12
residual activity [1]: 109%
residual activity [3]: 87.6%
residual activity [4]: 98%
residual activity [5]: 100%
residual activity [6]: 102%
residual activity [7]: 106%
residual activity [8]: 85.7%
residual activity [9]: 6.14%
residual activity [10]: 60.3%
residual activity [11]: 97.1%
residual activity [12]: 99.5%
residual activity [13]: 88.3%
residual activity [14]: 99%
residual activity [15]: 102%
residual activity [16]: 97.1%
residual activity [17]: 94.2%
residual activity [18]: 107%
residual activity [19]: 94.7%
residual activity [20]: 119%
residual activity [21]: 98.5%
residual activity [22]: 95.7%
residual activity [23]: 84.5%
residual activity [24]: 103%
residual activity [25]: 87.3%
residual activity [26]: 95.7%
residual activity [42]: 98.9%
residual activity [27]: 87%
residual activity [28]: 108%
residual activity [29]: 88.4%
residual activity [30]: 61.6%
residual activity [31]: 103%
residual activity [32]: 89.3%
residual activity [33]: 80.8%
residual activity [34]: 94.8%
residual activity [35]: 89.2%
residual activity [36]: 83.8%
residual activity [37]: 47.9%
residual activity [38]: 98.6%
residual activity [39]: 72.1%
residual activity [40]: 74.3%
residual activity [41]: 103%

Nc1nccc(-c2c(-c3ccc(F)cc3)ncn2C2CCNCC2)n1
residual activity [1]: 121%
residual activity [2]: 92.6%
residual activity [3]: 97.8%
residual activity [4]: 102%
residual activity [5]: 100%
residual activity [6]: 103%
residual activity [7]: 100%
residual activity [8]: 100%
residual activity [9]: 95.5%
residual activity [10]: 98.9%
residual activity [11]: 1.25%
residual activity [12]: 88.2%
residual activity [13]: 94.1%
residual activity [14]: 96%
residual activity [15]: 99.8%
residual activity [16]: 103%
residual activity [17]: 103%
residual activity [18]: 89.6%
residual activity [19]: 94%
residual activity [20]: 102%
residual activity [21]: 96.9%
residual activity [22]: 94.5%
residual activity [23]: 76.3%
residual activity [25]: 99%
residual activity [26]: 98.5%
residual activity [42]: 98.7%
residual activity [27]: 98.3%
residual activity [28]: 99.8%
residual activity [29]: 50.4%
residual activity [30]: 97.2%
residual activity [31]: 94.1%
residual activity [32]: 77.2%
residual activity [33]: 99.3%
residual activity [34]: 98.2%
residual activity [35]: 96.4%
residual activity [36]: 108%
residual activity [37]: 98.8%
residual activity [38]: 98%
residual activity [39]: 92.7%
residual activity [40]: 119%
residual activity [41]: 83.4%
